Measurements reported in the supplement of paper PMC10307832.

Experiments:
Assay in all cases: relative viability (nuclei count vs DMSO), 5 days (fraction); higher = more cells survive
Linsitinib + Crizotinib = compound: C[C@]1(O)C[C@@H](c2nc(-c3ccc4ccc(-c5ccccc5)nc4c3)c3c(N)nccn32)C1 [Linsitinib] + C[C@@H](Oc1cc(-c2cnn(C3CCNCC3)c2)cnc1N)c1c(Cl)ccc(F)c1Cl [Crizotinib] (partner 1 µM)
In short: (§1)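 Lung cancer cell lines were seeded in 1536-well plates and dosed by pin tool the next day, with either a single drug or a fixed anchor-drug dose combined with five library-drug doses (not always all listed) spaced in √10 steps. Five days later, one step fixed the cells and stained their nuclei (final 0.05% Triton X-100, 1% formaldehyde, 1 ug/ml Hoechst), and nuclei were counted on 4× images. Relative viability is the nuclei count in treated wells divided by the count in vehicle wells, and each value is the median of duplicate plates.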

Linsitinib + Lapatinib = compound: C[C@]1(O)C[C@@H](c2nc(-c3ccc4ccc(-c5ccccc5)nc4c3)c3c(N)nccn32)C1 [Linsitinib] + CS(=O)(=O)CCNCc1ccc(-c2ccc3ncnc(Nc4ccc(OCc5cccc(F)c5)c(Cl)c4)c3c2)o1 [Lapatinib] (partner 2 µM)
In short: as §1

Ispinesib + Decitabine = compound: Cc1ccc(C(=O)N(CCCN)[C@@H](c2nc3cc(Cl)ccc3c(=O)n2Cc2ccccc2)C(C)C)cc1 [Ispinesib] + Nc1ncn([C@H]2C[C@H](O)[C@@H](CO)O2)c(=O)n1 [Decitabine] (partner 2 µM)
In short: as §1

Ispinesib + OSI-027 = compound: Cc1ccc(C(=O)N(CCCN)[C@@H](c2nc3cc(Cl)ccc3c(=O)n2Cc2ccccc2)C(C)C)cc1 [Ispinesib] + COc1cccc2cc(-c3nc([C@H]4CC[C@H](C(=O)O)CC4)n4ncnc(N)c34)[nH]c12 [OSI-027] (partner 0.5 µM)
In short: as §1

Cell Line	relative viability (Linsitinib + Crizotinib; first compound 0.03162 µM)	relative viability (Linsitinib + Crizotinib; first compound 0.1 µM)	relative viability (Linsitinib + Crizotinib; first compound 0.3162 µM)	relative viability (Linsitinib + Crizotinib; first compound 1 µM)	relative viability (Linsitinib + Lapatinib; first compound 0.01 µM)	relative viability (Linsitinib + Lapatinib; first compound 0.03162 µM)	relative viability (Linsitinib + Lapatinib; first compound 0.1 µM)	relative viability (Linsitinib + Lapatinib; first compound 0.3162 µM)	relative viability (Linsitinib + Lapatinib; first compound 1 µM)	relative viability (Ispinesib + Decitabine; first compound 0.001 µM)	relative viability (Ispinesib + Decitabine; first compound 0.003162 µM)	relative viability (Ispinesib + Decitabine; first compound 0.01 µM)	relative viability (Ispinesib + Decitabine; first compound 0.03162 µM)	relative viability (Ispinesib + Decitabine; first compound 0.1 µM)	relative viability (Ispinesib + OSI-027; first compound 0.001 µM)	relative viability (Ispinesib + OSI-027; first compound 0.003162 µM)	relative viability (Ispinesib + OSI-027; first compound 0.01 µM)	relative viability (Ispinesib + OSI-027; first compound 0.03162 µM)	relative viability (Ispinesib + OSI-027; first compound 0.1 µM)	relative viability (Linsitinib + Crizotinib; first compound 0.01 µM)
NCI-H661	0.862	1.04	0.85	0.93	0.566	0.501	0.514	0.691	0.424	0.614	0.567	0.511	0.264	0.231	0.744	0.831	0.721	0.493	0.263	
CAL-12T	0.596	0.625	0.556	0.467	0.705	0.613	0.655	0.576	0.518						0.737	0.584	0.701	0.166	0.177	0.641
HARA	1.24	1.21	0.696	1.14	0.598	0.746	0.739	0.671	0.329	0.514	0.467	0.573	0.709	0.314	0.641	0.553	0.535	0.0672	0.0972	1.03
NCI-H596	1.08	0.969	0.987	1.04	1.05	1.07	1.05	0.965	0.991	1.02	1.89	1.15	1.02	0.885	0.818	0.674	0.951	0.625	0.29	0.969
NCI-H1623															0.433	0.439	0.451	0.406	0.4	
A549	0.771	0.684	0.623	0.473	0.981	1.02	0.816	0.783	0.443	0.149	0.254	0.326	0.315	0.196						0.685
NCI-H2342										0.821	0.756	0.76	0.743	0.78	0.631	0.741	0.593	0.48	0.456	
NCI-H1703		0.595	0.93	0.35	1.06		1.52	1.38	1.09											0.585
IA-LM	0.775	0.736	0.656	0.496	0.962	1.02	0.854	0.61	0.437											0.763
NCI-H522										0.662	0.649	0.751	0.687	0.673	0.746	0.759	0.715	0.555	0.414	
SW 900										0.388	0.344	0.43	0.396	0.311	0.751	0.617	0.553	0.345	0.225	
NCI-H1563	0.847	0.852	0.818	0.955	0.949	1.05	1.03	0.591	0.856						0.841	0.768	0.834	0.843	0.536	0.886
LCLC-103H	0.973	1.01	0.924	0.932						0.757	0.741	0.739	0.68	0.6	0.562	0.585	0.527	0.366	0.357	0.991
NCI-H1648										0.532	0.484	0.474	0.614	0.343	0.274	0.312	0.212	0.226	0.238	
ChaGo-K-1	1.07	1.14	0.812	1.04						0.463	0.56	0.494	0.574	0.521	0.529	0.627	0.582	0.627	0.222	1.08
NCI-H441	0.902	0.76	0.552	0.579						0.216	0.139	0.192	0.18	0.193	0.582	0.738	0.517	0.175	0.285	0.872
Calu-6	0.701	0.837	0.717	0.708	0.98	0.949	1.18	0.985	0.947											0.79
NCI-H1395					1.08	0.803	1.12	0.83	0.906	0.734	0.746	0.577	0.467	0.412	0.642	0.681	0.67	0.384	0.316	
NCI-H1793					0.786	0.822	0.751	0.43	0.478	0.411	0.473	0.624	0.524	0.229	0.275	0.343	0.294	0.22	0.16	
NCI-H1299	0.975	1	0.949	0.931	0.989	0.89	0.996	0.952	1.01											0.96
NCI-H2228	0.419	0.399	0.298	0.398	0.978	0.839	1.08	0.663	0.8						0.609	0.553	0.636	0.222	0.209	0.411
EBC-1	0.173	0.212	0.197	0.193	0.259	0.26	0.248	0.244	0.2											0.168
